Reference: patent US20230111310A1, “CARBOXYLIC ACID DERIVATIVE-SUBSTITUTED IMINO ARYL COMPOUND, PREPARATION METHOD THEREFOR, HERBICIDAL COMPOSITION AND USE THEREOF” (Qingdao Kingagroot Chemical Compound Co., Ltd., priority 2020, published 2023)

Tests used:
Test in all cases: Weeding effect in post-emergence stage
Type in all cases: in vivo
Abutilon theophrasti = details: for Weeding effect in post-emergence stage, Abutilon theophrasti: level of fresh weight growth control rate; for Weeding effect in post-emergence stage, Abutilon theophrasti (level): fresh weight control rate level
Outline: (§1)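 Pot-grown greenhouse plants sprayed at 2–3 leaf stage, 2 weeks after sowing, with compound in acetone/Tween 80 plus methyl oleate emulsifiable concentrate (1.5 liter/ha) at 500–7.5 g/ha. Growth control rated 3 weeks after treatment; mean of three replicates.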

Alopecurus japonicus = details: for Weeding effect in post-emergence stage, Alopecurus japonicus: level of fresh weight growth control rate; for Weeding effect in post-emergence stage, Alopecurus japonicus (level): fresh weight control rate level
Outline: as §1

Eleusine indica = details: for Weeding effect in post-emergence stage, Eleusine indica: level of fresh weight growth control rate; for Weeding effect in post-emergence stage, Eleusine indica (level): fresh weight control rate level
Outline: as §1

Setaria viridis = details: for Weeding effect in post-emergence stage, Setaria viridis: level of fresh weight growth control rate; for Weeding effect in post-emergence stage, Setaria viridis (level): fresh weight control rate level
Outline: as §1

Digitaria sanguinalis = details: for Weeding effect in post-emergence stage, Digitaria sanguinalis: level of fresh weight growth control rate; for Weeding effect in post-emergence stage, Digitaria sanguinalis (level): fresh weight control rate level
Outline: as §1

Echinochloa crusgalli = details: for Weeding effect in post-emergence stage, Echinochloa crusgalli: level of fresh weight growth control rate; for Weeding effect in post-emergence stage, Echinochloa crusgalli (level): fresh weight control rate level
Outline: as §1

SMILES: COC(=O)[C@@H](C)O/N=C/c1cc(-n2c(=O)cc(C(F)(F)F)n(C)c2=S)c(F)cc1Cl [347(R)]
- Weeding effect in post-emergence stage, Abutilon theophrasti (Abutilon theophrasti; Dose 30 g/ha): 5 (Level 5: growth control rate is above 85%)
- Weeding effect in post-emergence stage, Alopecurus japonicus (Alopecurus japonicus; Dose 30 g/ha): 5 (Level 5: growth control rate is above 85%)
- Weeding effect in post-emergence stage, Eleusine indica (Eleusine indica; Dose 30 g/ha): 5 (Level 5: growth control rate is above 85%)
- Weeding effect in post-emergence stage, Setaria viridis (Setaria viridis; Dose 30 g/ha): 5 (Level 5: growth control rate is above 85%)
- Weeding effect in post-emergence stage, Digitaria sanguinalis (Digitaria sanguinalis; Dose 30 g/ha): 5 (Level 5: growth control rate is above 85%)
- Weeding effect in post-emergence stage, Echinochloa crusgalli (Echinochloa crusgalli; Dose 30 g/ha): 5 (Level 5: growth control rate is above 85%)

SMILES: CSCCOC(=O)C(C)O/N=C/c1cc(-n2c(=O)cc(C(F)(F)F)n(C)c2=O)c(F)cc1Cl (stereo not drawn) [Compound 234]
- Weeding effect in post-emergence stage, Abutilon theophrasti (Abutilon theophrasti; Dose 15 g/ha): 5 (Level 5: growth control rate is above 85%)
- Weeding effect in post-emergence stage, Alopecurus japonicus (Alopecurus japonicus; Dose 15 g/ha): 5 (Level 5: growth control rate is above 85%)
- Weeding effect in post-emergence stage, Eleusine indica (Eleusine indica; Dose 15 g/ha): 5 (Level 5: growth control rate is above 85%)
- Weeding effect in post-emergence stage, Setaria viridis (Setaria viridis; Dose 15 g/ha): 5 (Level 5: growth control rate is above 85%)
- Weeding effect in post-emergence stage, Digitaria sanguinalis (Digitaria sanguinalis; Dose 15 g/ha): 5 (Level 5: growth control rate is above 85%)
- Weeding effect in post-emergence stage, Echinochloa crusgalli (Echinochloa crusgalli; Dose 15 g/ha): 5 (Level 5: growth control rate is above 85%)

SMILES: Cc1cc(C)n(C(=O)[C@@H](C)O/N=C/c2cc(-n3c(=O)cc(C(F)(F)F)n(C)c3=O)c(F)cc2Cl)n1 [424(R)]
- Weeding effect in post-emergence stage, Abutilon theophrasti (level) (Abutilon theophrasti; Dose 30 g/ha): 5 (Level 5: growth control rate is above 85%)
- Weeding effect in post-emergence stage, Alopecurus japonicus (level) (Alopecurus japonicus; Dose 30 g/ha): 5 (Level 5: growth control rate is above 85%)
- Weeding effect in post-emergence stage, Eleusine indica (level) (Eleusine indica; Dose 30 g/ha): 5 (Level 5: growth control rate is above 85%)
- Weeding effect in post-emergence stage, Setaria viridis (level) (Setaria viridis; Dose 30 g/ha): 5 (Level 5: growth control rate is above 85%)
- Weeding effect in post-emergence stage, Digitaria sanguinalis (level) (Digitaria sanguinalis; Dose 30 g/ha): 5 (Level 5: growth control rate is above 85%)
- Weeding effect in post-emergence stage, Echinochloa crusgalli (level) (Echinochloa crusgalli; Dose 30 g/ha): 5 (Level 5: growth control rate is above 85%)

SMILES: COC[C@@H](O/N=C/c1cc(-n2c(=O)n(C)c(=S)n(C)c2=O)c(F)cc1Cl)C(=O)OC [80(R)]
- Weeding effect in post-emergence stage, Abutilon theophrasti (Abutilon theophrasti; Dose 15 g/ha): 5 (Level 5: growth control rate is above 85%)
- Weeding effect in post-emergence stage, Alopecurus japonicus (Alopecurus japonicus; Dose 15 g/ha): 5 (Level 5: growth control rate is above 85%)
- Weeding effect in post-emergence stage, Eleusine indica (Eleusine indica; Dose 15 g/ha): 5 (Level 5: growth control rate is above 85%)
- Weeding effect in post-emergence stage, Setaria viridis (Setaria viridis; Dose 15 g/ha): 5 (Level 5: growth control rate is above 85%)
- Weeding effect in post-emergence stage, Digitaria sanguinalis (Digitaria sanguinalis; Dose 15 g/ha): 5 (Level 5: growth control rate is above 85%)
- Weeding effect in post-emergence stage, Echinochloa crusgalli (Echinochloa crusgalli; Dose 15 g/ha): 5 (Level 5: growth control rate is above 85%)

SMILES: C/C(=N/C(=O)[C@@H](C)O/N=C/c1cc(-n2c(=O)cc(C(F)(F)F)n(C)c2=O)c(F)cc1Cl)c1ccccc1 [453(R)]
- Weeding effect in post-emergence stage, Abutilon theophrasti (level) (Abutilon theophrasti; Dose 30 g/ha): 5 (Level 5: growth control rate is above 85%)
- Weeding effect in post-emergence stage, Alopecurus japonicus (level) (Alopecurus japonicus; Dose 30 g/ha): 5 (Level 5: growth control rate is above 85%)
- Weeding effect in post-emergence stage, Eleusine indica (level) (Eleusine indica; Dose 30 g/ha): 5 (Level 5: growth control rate is above 85%)
- Weeding effect in post-emergence stage, Setaria viridis (level) (Setaria viridis; Dose 30 g/ha): 5 (Level 5: growth control rate is above 85%)
- Weeding effect in post-emergence stage, Digitaria sanguinalis (level) (Digitaria sanguinalis; Dose 30 g/ha): 5 (Level 5: growth control rate is above 85%)
- Weeding effect in post-emergence stage, Echinochloa crusgalli (level) (Echinochloa crusgalli; Dose 30 g/ha): 5 (Level 5: growth control rate is above 85%)

SMILES: CC(O/N=C/c1cc(-n2c(=O)n(C)c(=S)n(C)c2=O)c(F)cc1Cl)C(=O)O (stereo not drawn) [Compound 438]
- Weeding effect in post-emergence stage, Abutilon theophrasti (level) (Abutilon theophrasti; Dose 30 g/ha): 5 (Level 5: growth control rate is above 85%)
- Weeding effect in post-emergence stage, Alopecurus japonicus (level) (Alopecurus japonicus; Dose 30 g/ha): 5 (Level 5: growth control rate is above 85%)
- Weeding effect in post-emergence stage, Eleusine indica (level) (Eleusine indica; Dose 30 g/ha): 5 (Level 5: growth control rate is above 85%)
- Weeding effect in post-emergence stage, Setaria viridis (level) (Setaria viridis; Dose 30 g/ha): 5 (Level 5: growth control rate is above 85%)
- Weeding effect in post-emergence stage, Digitaria sanguinalis (level) (Digitaria sanguinalis; Dose 30 g/ha): 5 (Level 5: growth control rate is above 85%)
- Weeding effect in post-emergence stage, Echinochloa crusgalli (level) (Echinochloa crusgalli; Dose 30 g/ha): 5 (Level 5: growth control rate is above 85%)

SMILES: COC(=O)C(C)O/N=C/c1cc(-n2c(=O)c(Cl)c(C(F)(F)F)n(C)c2=O)c(F)cc1Cl (stereo not drawn) [Compound 431]
- Weeding effect in post-emergence stage, Abutilon theophrasti (level) (Abutilon theophrasti; Dose 15 g/ha): 5 (Level 5: growth control rate is above 85%)
- Weeding effect in post-emergence stage, Alopecurus japonicus (level) (Alopecurus japonicus; Dose 15 g/ha): 5 (Level 5: growth control rate is above 85%)
- Weeding effect in post-emergence stage, Eleusine indica (level) (Eleusine indica; Dose 15 g/ha): 5 (Level 5: growth control rate is above 85%)
- Weeding effect in post-emergence stage, Setaria viridis (level) (Setaria viridis; Dose 15 g/ha): 5 (Level 5: growth control rate is above 85%)
- Weeding effect in post-emergence stage, Digitaria sanguinalis (level) (Digitaria sanguinalis; Dose 15 g/ha): 5 (Level 5: growth control rate is above 85%)
- Weeding effect in post-emergence stage, Echinochloa crusgalli (level) (Echinochloa crusgalli; Dose 15 g/ha): 5 (Level 5: growth control rate is above 85%)

SMILES: C[C@@H](O/N=C/c1cc(-n2c(=O)cc(C(F)(F)F)n(C)c2=O)c(F)cc1Cl)C(=O)OCCC1OCCO1 [498(R)]
- Weeding effect in post-emergence stage, Abutilon theophrasti (level) (Abutilon theophrasti; Dose 15 g/ha): 5 (Level 5: growth control rate is above 85%)
- Weeding effect in post-emergence stage, Alopecurus japonicus (level) (Alopecurus japonicus; Dose 15 g/ha): 5 (Level 5: growth control rate is above 85%)
- Weeding effect in post-emergence stage, Eleusine indica (level) (Eleusine indica; Dose 15 g/ha): 5 (Level 5: growth control rate is above 85%)
- Weeding effect in post-emergence stage, Setaria viridis (level) (Setaria viridis; Dose 15 g/ha): 5 (Level 5: growth control rate is above 85%)
- Weeding effect in post-emergence stage, Digitaria sanguinalis (level) (Digitaria sanguinalis; Dose 15 g/ha): 5 (Level 5: growth control rate is above 85%)
- Weeding effect in post-emergence stage, Echinochloa crusgalli (level) (Echinochloa crusgalli; Dose 15 g/ha): 5 (Level 5: growth control rate is above 85%)

SMILES: CC(O/N=C/c1cc(-n2c(=O)n(C)c(=S)n(C)c2=O)c(F)cc1Cl)C(=O)OCc1ccco1 (stereo not drawn) [Compound 26]
- Weeding effect in post-emergence stage, Abutilon theophrasti (Abutilon theophrasti; Dose 15 g/ha): 5 (Level 5: growth control rate is above 85%)
- Weeding effect in post-emergence stage, Alopecurus japonicus (Alopecurus japonicus; Dose 15 g/ha): 5 (Level 5: growth control rate is above 85%)
- Weeding effect in post-emergence stage, Eleusine indica (Eleusine indica; Dose 15 g/ha): 5 (Level 5: growth control rate is above 85%)
- Weeding effect in post-emergence stage, Setaria viridis (Setaria viridis; Dose 15 g/ha): 5 (Level 5: growth control rate is above 85%)
- Weeding effect in post-emergence stage, Digitaria sanguinalis (Digitaria sanguinalis; Dose 15 g/ha): 5 (Level 5: growth control rate is above 85%)
- Weeding effect in post-emergence stage, Echinochloa crusgalli (Echinochloa crusgalli; Dose 15 g/ha): 5 (Level 5: growth control rate is above 85%)

SMILES: CCOC(=O)[C@@H](F)O/N=C/c1cc(-n2c(=O)cc(C(F)(F)F)n(C)c2=O)c(F)cc1Cl [313(R)]
- Weeding effect in post-emergence stage, Abutilon theophrasti (Abutilon theophrasti; Dose 15 g/ha): 5 (Level 5: growth control rate is above 85%)
- Weeding effect in post-emergence stage, Alopecurus japonicus (Alopecurus japonicus; Dose 15 g/ha): 5 (Level 5: growth control rate is above 85%)
- Weeding effect in post-emergence stage, Eleusine indica (Eleusine indica; Dose 15 g/ha): 5 (Level 5: growth control rate is above 85%)
- Weeding effect in post-emergence stage, Setaria viridis (Setaria viridis; Dose 15 g/ha): 5 (Level 5: growth control rate is above 85%)
- Weeding effect in post-emergence stage, Digitaria sanguinalis (Digitaria sanguinalis; Dose 15 g/ha): 5 (Level 5: growth control rate is above 85%)
- Weeding effect in post-emergence stage, Echinochloa crusgalli (Echinochloa crusgalli; Dose 15 g/ha): 5 (Level 5: growth control rate is above 85%)

SMILES: COC(=O)C(O/N=C/c1cc(-n2c(=O)cc(C(F)(F)F)n(C)c2=O)c(F)cc1Cl)C(C)C (stereo not drawn) [Compound 318]
- Weeding effect in post-emergence stage, Abutilon theophrasti (Abutilon theophrasti; Dose 15 g/ha): 5 (Level 5: growth control rate is above 85%)
- Weeding effect in post-emergence stage, Alopecurus japonicus (Alopecurus japonicus; Dose 15 g/ha): 5 (Level 5: growth control rate is above 85%)
- Weeding effect in post-emergence stage, Eleusine indica (Eleusine indica; Dose 15 g/ha): 5 (Level 5: growth control rate is above 85%)
- Weeding effect in post-emergence stage, Setaria viridis (Setaria viridis; Dose 15 g/ha): 5 (Level 5: growth control rate is above 85%)
- Weeding effect in post-emergence stage, Digitaria sanguinalis (Digitaria sanguinalis; Dose 15 g/ha): 5 (Level 5: growth control rate is above 85%)
- Weeding effect in post-emergence stage, Echinochloa crusgalli (Echinochloa crusgalli; Dose 15 g/ha): 5 (Level 5: growth control rate is above 85%)
